Reference: the supplement of paper PMC10307832

Columns and labels:
Test in all cases: relative viability (nuclei count vs DMSO), 5 days (fraction); higher = more cells survive
[1] = compound: C1CN(CCC1C(C2=CC3=C(C=C2)OCO3)(C4=CC5=C(C=C4)OCO5)O)C(=O)OC6=CC=C(C=C6)[N+](=O)[O-] [JZL-184] + N=C(N)NC(=N)NCCc1ccccc1 [Phenformin] (partner 250 µM)
In short: (§1)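 Lung cancer cell lines were seeded in 1536-well plates and dosed by pin tool the next day, with either a single drug or a fixed anchor-drug dose combined with five library-drug doses (not always all listed) spaced in √10 steps. Five days later, one step fixed the cells and stained their nuclei (final 0.05% Triton X-100, 1% formaldehyde, 1 ug/ml Hoechst), and nuclei were counted on 4× images. Relative viability is the nuclei count in treated wells divided by the count in vehicle wells, and each value is the median of duplicate plates.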

[2] = compound: C1CN(CCC1C(C2=CC3=C(C=C2)OCO3)(C4=CC5=C(C=C4)OCO5)O)C(=O)OC6=CC=C(C=C6)[N+](=O)[O-] [JZL-184] + CS(=O)(=O)CCNCc1ccc(-c2ccc3ncnc(Nc4ccc(OCc5cccc(F)c5)c(Cl)c4)c3c2)o1 [Lapatinib] (partner 2 µM)
In short: as §1

[3] = compound: C1CN(CCC1C(C2=CC3=C(C=C2)OCO3)(C4=CC5=C(C=C4)OCO5)O)C(=O)OC6=CC=C(C=C6)[N+](=O)[O-] [JZL-184] + Nc1nc2[nH]cc(CCc3ccc(C(=O)N[C@@H](CCC(=O)O)C(=O)O)cc3)c2c(=O)[nH]1 [Pemetrexed] (partner 0.2 µM)
In short: as §1

[4] = compound: C1CN(CCC1C(C2=CC3=C(C=C2)OCO3)(C4=CC5=C(C=C4)OCO5)O)C(=O)OC6=CC=C(C=C6)[N+](=O)[O-] [JZL-184] + O=C(c1cc(Cc2n[nH]c(=O)c3ccccc23)ccc1F)N1CCN(C(=O)C2CC2)CC1 [Olaparib] (partner 8 µM)
In short: as §1

[5] = compound: C1CN(CCC1C(C2=CC3=C(C=C2)OCO3)(C4=CC5=C(C=C4)OCO5)O)C(=O)OC6=CC=C(C=C6)[N+](=O)[O-] [JZL-184] + CC(=O)c1c(C)c2cnc(Nc3ccc(N4CCNCC4)cn3)nc2n(C2CCCC2)c1=O [Palbociclib] (partner 0.5 µM)
In short: as §1

| Cell Line | relative viability ([1]; first compound 0.04 µM) | relative viability ([1]; first compound 0.4 µM) | relative viability ([1]; first compound 1.265 µM) | relative viability ([1]; first compound 4 µM) | relative viability ([2]; first compound 0.04 µM) | relative viability ([2]; first compound 0.4 µM) | relative viability ([2]; first compound 1.265 µM) | relative viability ([2]; first compound 4 µM) | relative viability ([3]; first compound 0.04 µM) | relative viability ([3]; first compound 0.4 µM) | relative viability ([3]; first compound 1.265 µM) | relative viability ([3]; first compound 4 µM) | relative viability ([4]; first compound 0.04 µM) | relative viability ([4]; first compound 0.4 µM) | relative viability ([4]; first compound 1.265 µM) | relative viability ([4]; first compound 4 µM) | relative viability ([5]; first compound 0.04 µM) | relative viability ([5]; first compound 0.4 µM) | relative viability ([5]; first compound 1.265 µM) | relative viability ([5]; first compound 4 µM) |
| --- | --- | --- | --- | --- | --- | --- | --- | --- | --- | --- | --- | --- | --- | --- | --- | --- | --- | --- | --- | --- |
| NCI-H1651 | 0.393 | 0.3 | 0.337 | 0.353 | 0.833 | 0.715 | 0.888 | 0.798 | 0.592 | 0.362 | 0.411 | 0.595 | 0.24 | 0.176 | 0.196 | 0.207 | 0.547 | 0.529 | 0.558 | 0.519 |
| NCI-H1666 | 0.614 | 0.585 | 0.538 | 0.534 | 0.647 | 0.65 | 0.585 | 0.633 | 0.802 | 0.842 | 0.875 | 0.865 | 0.755 | 0.716 | 0.712 | 0.735 | 0.685 | 0.642 | 0.636 | 0.668 |
| NCI-H1734 | 0.469 | 0.36 | 0.38 | 0.349 | 1.22 | 0.959 | 1.15 | 1.04 | 0.462 | 0.426 | 0.419 | 0.42 | 0.674 | 0.589 | 0.627 | 0.547 | 0.394 | 0.293 | 0.37 | 0.292 |
| NCI-H1755 | 0.636 | 0.621 | 0.614 | 0.601 | 1.02 | 1.01 | 1.07 | 0.962 | 0.432 | 0.367 | 0.475 | 0.484 | 0.812 | 0.896 | 0.891 | 0.895 | 0.44 | 0.451 | 0.473 | 0.452 |
| NCI-H1792 | 0.288 | 0.147 | 0.62 | 0.281 | 0.974 | 0.858 | 0.926 | 0.96 | 1.05 | 0.699 | 1.1 | 0.812 | 0.349 | 0.304 | 0.465 | 0.432 | 0.677 | 0.687 | 0.659 | 0.656 |
| NCI-H1793 | 0.162 | 0.368 | 0.44 | 0.456 | 0.853 | 0.492 | 0.812 | 0.422 | 0.936 | 0.801 | 0.982 | 0.735 | 0.978 | 0.911 | 0.933 | 0.861 | 0.271 | 0.285 | 0.281 | 0.312 |
| NCI-H1915 | 0.378 | 0.364 | 0.377 | 0.367 | 1.15 | 0.973 | 0.998 | 0.935 | 0.506 | 0.485 | 0.535 | 0.534 | 0.262 | 0.264 | 0.273 | 0.233 | 0.506 | 0.511 | 0.531 | 0.511 |
| NCI-H1944 | 0.194 | 0.192 | 0.198 | 0.199 | 0.805 | 0.803 | 0.875 | 0.846 | 0.587 | 0.53 | 0.72 | 0.567 | 0.402 | 0.351 | 0.401 | 0.444 | 0.338 | 0.289 | 0.347 | 0.328 |
| NCI-H1975 | 0.414 | 0.411 | 0.395 | 0.397 | 1.08 | 0.824 | 1.02 | 0.888 | 0.307 | 0.281 | 0.296 | 0.263 | 0.849 | 0.726 | 0.876 | 0.694 | 0.679 | 0.579 | 0.614 | 0.575 |
| NCI-H1993 | 0.428 | 0.476 | 0.487 | 0.47 | 0.767 | 0.807 | 0.827 | 0.885 | 0.63 | 0.577 | 0.619 | 0.68 | 1.11 | 1.05 | 1.13 | 0.966 | 0.707 | 0.604 | 0.758 | 0.604 |
| NCI-H2009 | 0.518 | 0.473 | 0.51 | 0.461 | 1.15 | 0.805 | 0.928 | 1.01 | 1.14 | 1.03 | 1.04 | 0.994 | 0.785 | 0.696 | 0.734 | 0.642 | 0.172 | 0.188 | 0.241 | 0.219 |
| NCI-H2023 | 0.477 | 0.342 | 0.469 | 0.35 | 1.14 | 0.853 | 0.964 | 0.802 | 0.281 | 0.167 | 0.258 | 0.227 | 0.529 | 0.466 | 0.484 | 0.44 | 0.56 | 0.354 | 0.393 | 0.249 |
| NCI-H2085 | 0.433 | 0.682 | 0.843 | 0.737 |  | 0.657 | 0.764 | 0.753 |  | 0.817 | 0.948 | 0.882 |  | 0.743 | 0.815 | 0.704 |  | 0.489 | 0.44 | 0.469 |
| NCI-H2087 | 0.538 | 0.449 | 0.515 | 0.486 | 1.29 | 0.824 | 0.99 | 1.18 | 0.667 | 0.663 | 0.631 | 0.636 | 0.714 | 0.585 | 0.665 | 0.517 | 0.231 | 0.215 | 0.259 | 0.227 |
| NCI-H2126 | 0.6 | 0.541 | 0.538 | 0.532 | 0.755 | 0.779 | 0.768 | 0.764 | 0.663 | 0.66 | 0.726 | 0.705 | 0.892 | 0.891 | 0.975 | 0.925 | 0.329 | 0.357 | 0.359 | 0.345 |
